The nature of data set [1]: In vitro stability of MRS2365 in mouse plasma. The class given is in vitro ADME. Conditions: heparin-treated mouse plasma, 0-90 seconds, even at 0 and 5 seconds. How it is done: Whole blood was obtained from male CD-1 mice and human volunteers at Seventh Wave Laboratories (Maryland Heights, MO). Plasma and blood samples were prepared using either EDTA (1 mM) or lithium heparin as anticoagulants.
Plasma Stability Determination: MRS2365, enalapril and procaine were solubilized in phosphate-buffered saline, pH 7.4. […] Stability incubations were initiated with the addition of MRS2365 (1 μM final concentration). Initial assessments of stability in EDTA-generated plasma utilized incubation timepoints of 0, 10, 30, 60, 120 and 240 minutes (FIGS. 3 and 4). Subsequent studies comparing EDTA- and heparin-generated plasma utilized incubation timepoints of 0, 1, 2.5, 5, 7.5, 10 and 30 minutes (FIG. 7). Additional plasma stability incubations comparing EDTA- and heparin-generated plasma were performed using timepoints of 0, 5, 10, 20, 30, 45, 60 and 90 seconds (FIG. 8). For metabolite scouting analyses, MRS2365 was incubated in heparinized human plasma at a concentration of 100 μM for 10 or 30 minutes (FIG. 9). In all studies, plasma was immediately placed in microtainer tubes, frozen on dry ice and stored at −80° C. until analysis.
The following table outlines the LC and MS/MS conditions employed (Table 11).
The calibration range for MRS2365 plasma and blood concentration standard curves was 5-5000 ng/mL. […]

A short description of data set [2]: Previous in vivo pharmacokinetic assessments of MRS2365 in mice. Conditions: heparin as blood anticoagulant for plasma preparation, initial assessments.
Data set [3] can be described thus: Pharmacokinetics of MRS4322 following intraperitoneal administration to mice (plasma and brain concentrations). The class given is in vivo. The note with it: MRS4322 […] i.p.; for Plasma Concentration Mean / Plasma Concentration by Subject: BLQ = below 2.40 ng/mL; for Brain Concentration Mean / Brain Concentration by Subject: BLQ = below 9.64 ng/g; for Plasma Concentration by Subject / Brain Concentration by Subject: subjects A-C. The protocol:
Animals: Female C576BL/6J mice weighing approximately 0.02 kg were used for this study, supplied by the University of Texas Health Sciences Center (San Antonio, TX). All studies were conducted under approved University of Texas Health Sciences Center IACUC protocols.
Drug Administration: MRS4322 was solubilized in DMSO and then diluted in saline to prepare dosing solution. Final dosing solution concentration of MRS4322 was 100 μM. A 100 μL volume of dosing solution was administered intraperitoneally to each mouse per 20 gram body weight; MRS4322 was administered intraperitoneally at 0.16 mg/kg or 0.5 μmol/kg. Three mice were administered MRS4322 for each sampling timepoint.
Tissue Sampling: Blood and brain samples were obtained at 0, 0.083, 0.25, 0.5, 1, 2 and 8 hours post-dose. At each timepoint, mice (3/timepoint) were euthanized in a […] chamber. Whole blood was obtained by cardiac puncture into Microtainer tubes containing heparin and immediately centrifuged for preparation of plasma; plasma was stored at −80° C. At each timepoint, whole brain samples were obtained by decapitation, rinsed in ice-cold phosphate-buffered saline and weighed. Brain samples were then immediately flash-frozen in liquid nitrogen and stored at −80° C.
The following table outlines the LC and MS/MS conditions employed:
The calibration range for the MRS4322 plasma concentration standard curve was 2.42-242 ng/mL. The calibration range for MRS4322 brain concentrations was 2.41-233 ng/mL.
For bioanalysis of brain concentrations of MRS4322, brain samples were homogenized in ice-cold phosphate-buffered saline in a 4× dilution. Aliquots of the resulting diluted brain homogenate were treated with acetonitrile and analyzed by LC-MS/MS. Because of the 4× homogenate dilution, the calibration range of the MRS4322 brain standard curve was translated to 9.64-932 ng/gm. In several samples, MRS4322 was detectable but fell below the brain LLOQ of 9.64 ng/gm but were above background; in these cases the final reported brain concentration was extrapolated based on MS peak heights.

This note sets out measurements from patent publication US12390483B2, “Compounds and methods for treating neurological and cardiovascular conditions” (Astrocyte Pharmaceuticals, Inc., priority 2016, dated 2025).

As to `CSc1nc(N)c2ncn([C@H]3[C@H](O)[C@H](O)[C@]4(COP(=O)(O)OP(=O)(O)O)C[C@H]34)c2n1` [MRS2365], the “MRS2365 concentrations during incubation” value in data set [1] is reported as “extremely low”. In data set [2], the in vivo clearance entry is on record as “rapidly cleared at a rate approximating cardiac output”.

Regarding `CSc1nc(N)c2ncn([C@H]3[C@H](O)[C@H](O)[C@]4(CO)C[C@H]34)c2n1` [MRS4322], in data set [3] (0 h), the “Plasma Concentration Mean” value is given as “BLQ”, the “Brain Concentration Mean” value was “BLQ”, the “Plasma Concentration by Subject” value is reported as “BLQ” and the “Brain Concentration by Subject” value is listed as “BLQ”. In addition, in data set [3] (1 h), the “Brain Concentration Mean” value was “BLQ” and the “Brain Concentration by Subject” value is reported as “BLQ”. Further, in data set [3] (2 h), the “Brain Concentration Mean” value is “BLQ” and the “Brain Concentration by Subject” value is “BLQ”. For the same compound, in data set [3] (8 h), the “Plasma Concentration Mean” value is given as “BLQ”, the “Brain Concentration Mean” value is given as “BLQ”, the “Plasma Concentration by Subject” value was “BLQ” and the “Brain Concentration by Subject” value was “BLQ”.
